Measured values reported in patent US20240174651A1, “COMPOUNDS AND USE THEREOF FOR TREATMENT OF NEURODEGENERATIVE, DEGENERATIVE AND METABOLIC DISORDERS” (THE SCRIPPS RESEARCH INSTITUTE, priority 2021, published 2024).
pEC50: −log10 of the molar value. Several values for one entry are separate records, joined by “and”; a condition that tells them apart may be missing. Equal values may be shown once.

tested on: PK1 neuroblastoma cells exposed to TPrP; assay: cells; format: cell-based; settings: PK-1, 96 h, read-out: TPrP EC50

Compound | pEC50
c1ccc2c(NCC3CCCCO3)nnc(Cc3ccncc3)c2c1 (centres unmarked) [SR-30007] | 7.22
c1ccc2c(c1)CC(Nc1nnc(Cc3ccncc3)c3ccccc13)C2 [SR-27885] | 6.70
CC(=O)c1cccc(Nc2nnc(Cc3ccncc3C(F)(F)F)c3ccccc23)c1 [SR-33876] | < 6.30
CC(O)c1cccc(Nc2nnc(Cc3ccncc3)c3ccccc23)c1 (centres unmarked) [SR-29684] | 8.70
CC(=O)c1cccc(Nc2nnc(Cc3ccnc(C(F)(F)F)c3)c3ccccc23)c1 [SR-33873] | < 6.30
Cc1cc(C(C)c2nnc(NCc3ccco3)c3ccccc23)ccn1 (centres unmarked) [SR-35433] | < 6.05
c1ccc2oc(Nc3nnc(Cc4ccncc4)c4ccccc34)nc2c1 [SR-30010] | 8.70
CC(=O)c1cccc(Nc2nnc(Cc3ccnc(C)c3)c3ccccc23)c1 [SR-33871] | 7.15
c1ccc2c(c1)CC(Nc1nnc(Cc3ccncc3)c3ccccc13)CO2 (centres unmarked) [SR-27889] | 6.55
O=[N+]([O-])c1ccc2oc(Nc3nnc(Cc4ccncc4)c4ccccc34)nc2c1 [SR-32068] | 7.70
c1ccc2c(NCC3CCOCC3)nnc(Cc3ccncc3)c2c1 [SR-30008] | 7.82
COc1ccc2oc(Nc3nnc(Cc4ccncc4)c4ccccc34)nc2c1 [SR-32076] | 7.70
Fc1ccc2nc(Nc3nnc(Cc4ccncc4)c4ccccc34)oc2c1 [SR-32071] | 7.05
Cc1cccc2oc(Nc3nnc(Cc4ccncc4)c4ccccc34)nc12 [SR-32072] | 7.52
c1ccc2[nH]c(CNc3nnc(Cc4ccncc4)c4ccccc34)cc2c1 [SR-30006] | 7.30
c1ccc2oc(CNc3nnc(Cc4ccncc4)c4ccccc34)cc2c1 [SR-30011] | 8.70
CC(=O)c1cccc(Nc2nnc(C(c3ccncc3)C(F)(F)F)c3ccccc23)c1 (centres unmarked) [SR-34646] | < 6.30
c1ccc2c(c1)ccc1oc(Nc3nnc(Cc4ccncc4)c4ccccc34)nc12 [SR-32077] | 6.87
CO/N=C(\C)c1cccc(Nc2nnc(Cc3ccncc3)c3ccccc23)c1 [SR-30014] | 8.70
Fc1ccc2oc(Nc3nnc(Cc4ccncc4)c4ccccc34)nc2c1 [SR-32067] | 7.70
Fc1cccc2oc(Nc3nnc(Cc4ccncc4)c4ccccc34)nc12 [SR-32070] | 7.70
Cc1ccc2nc(Nc3nnc(Cc4ccncc4)c4ccccc34)oc2c1 [SR-32066] | 7.30
CC(=O)c1cccc(Nc2nnc(Cc3cc(C)nc(C)c3)c3ccccc23)c1 [SR-32064] | < 6.40
Fc1cccc2nc(Nc3nnc(Cc4ccncc4)c4ccccc34)oc12 [SR-32074] | 7.52
Cc1cc(C(C)c2nnc(NC3CCc4ccccc43)c3ccccc23)ccn1 (centres unmarked) [SR-35430] | < 6.05
c1coc(CNc2nnc(Cc3ccncc3)c3ccccc23)c1 [SR-30005] | 6.85
COc1ccc(CNc2nnc(Cc3ccncc3)c3ccccc23)cc1OC [SR-27886] | 6.82
c1ccc2[nH]c(CNc3nnc(Cc4ccncc4)c4ccccc34)nc2c1 [SR-27887] | 6.66

Compound | pEC50
c1cc(Nc2nnc(Cc3ccncc3)c3ccccc23)cc(C2COC2)c1 [SR-35426] | 8.00
Cc1cccc2nc(Nc3nnc(Cc4ccncc4)c4ccccc34)oc12 [SR-32075] | < 6.40
c1ccc(OCCNc2nnc(Cc3ccncc3)c3ccccc23)cc1 [SR-27892] | 6.30
c1ccc2cc3oc(Nc4nnc(Cc5ccncc5)c5ccccc45)nc3cc2c1 [SR-32073] | 6.60
O=S(=O)(c1cccc(Nc2nnc(Cc3ccncc3)c3ccccc23)c1)N1CC2CCC(C1)O2 [SR-35428] | 8.22
CC(=O)c1cccc(Nc2nnc(Cc3ccncc3)c3ccccc23)c1 [SR005] | 7.82
COc1cc(Cc2nnc(Nc3cccc(C(C)=O)c3)c3ccccc23)ccn1 [SR-33874] | < 6.30
CC(=O)c1cccc(Nc2nnc(C(C)c3ccncc3)c3ccccc23)c1 (centres unmarked) [SR-34644] | 7.35
c1ccc2c(c1)CCC2Nc1nnc(Cc2ccncc2)c2ccccc12 (centres unmarked) [SR-27884] | 6.30
O=S(=O)(c1cccc(Nc2nnc(Cc3ccncc3)c3ccccc23)c1)N1C2CCC1COC2 [SR-35427] | 8.15
O=S(=O)(c1ccc(Nc2nnc(Cc3ccncc3)c3ccccc23)cc1)N1CCOCC1 [SR-35425] | 8.30
c1ccc2c(NCC3CCCO3)nnc(Cc3ccncc3)c2c1 (centres unmarked) [SR-30004] | 6.82
Cc1cc(C(C)c2nnc(NCC3CCOCC3)c3ccccc23)ccn1 (centres unmarked) [SR-35429, 4-(1-(2-methylpyridin-4-yl)ethyl)-N-((tetrahydro-2H-pyran-4-yl)methyl)phthalazin-1-amine] | 7.59
c1ccc2c(c1)CC(CNc1nnc(Cc3ccncc3)c3ccccc13)CO2 (centres unmarked) [SR-27890] | 6.78
O=S(=O)(c1cccc(Nc2nnc(Cc3ccncc3)c3ccccc23)c1)N1CCOCC1 [SR-35424] | 8.05
C/C(=N\O)c1cccc(Nc2nnc(Cc3ccncc3)c3ccccc23)c1 [SR-30013] | 8.70
Clc1ccc(Nc2nnc(Cc3ccncc3)c3ccccc23)cc1 [vatalanib, reference compound] | 7.22
c1ccc2oc(CNc3nnc(Cc4ccncc4)c4ccccc34)nc2c1 [SR-27888] | 7.35
Cc1cc(Cc2nnc(Nc3nc4ccccc4o3)c3ccccc23)ccn1 [SR-33872] | < 6.30
CC1(c2cccc(Nc3nnc(Cc4ccncc4)c4ccccc34)c2)OCCO1 [SR-30012] | 8.70
CC(=C(F)F)c1cccc(Nc2nnc(Cc3ccncc3)c3ccccc23)c1 [SR-31144] | < 6.40
CC(c1ccncc1)c1nnc(NCc2cc3ccccc3o2)c2ccccc12 (centres unmarked) [SR-34645] | ~6.30
Cc1cc(C(C)c2nnc(Nc3cccc(C4COC4)c3)c3ccccc23)ccn1 (centres unmarked) [SR-35431] | < 6.05
COc1cc(Cc2nnc(NCc3cc4ccccc4o3)c3ccccc23)ccn1 [SR-33875] | < 6.30
O=[N+]([O-])c1cccc2oc(Nc3nnc(Cc4ccncc4)c4ccccc34)nc12 [SR-32069] | 8.10
Cc1cc(Cc2nnc(Nc3nc4ccccc4o3)c3ccccc23)cc(C)n1 [SR-32065] | < 6.40
Cc1cc(C(C)c2nnc(NCC3COc4ccccc4C3)c3ccccc23)ccn1 (centres unmarked) [SR-35432] | < 6.05

same assay, conditions: read-out: TPrP EC50

Compound | pEC50
CC(=O)c1cccc(Nc2nnc(Cc3ccncc3)c3ccccc23)c1 [SR005] | 7.70 and 7.60
